According to PubChem BioAssay (NCI):
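Interpolation was linear, between the two tested concentrations surrounding the appropriate level; five concentrations were tested over 48 hours in 96-well plates. The concentration for 50% growth inhibition is given as GI50. The concentration for full growth arrest is given as TGI.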

What was measured:
Assay in all cases: NCI tumour cell line growth inhibition, 48 h
[1] = system: DMS 273 small cell lung
[2] = system: DMS 114 small cell lung
[3] = system: LXFL 529 NSCLC
[4] = system: HOP-18 NSCLC
[5] = system: KM20L2 colon
[6] = system: SNB-78 CNS
[7] = system: DLD-1 colon
[8] = system: RXF-631 renal
[9] = system: MDA-N
[10] = system: P388 leukemia
[11] = system: SN12K1 renal
[12] = system: P388/ADR leukemia

Row | Compound | TGI [1] | TGI [2] | TGI [3] | TGI [4] | TGI [5] | TGI [6] | TGI [7] | TGI [8] | also measured
1 | O=C1c2ccccc2C2(O)c3cc4ccccc4cc3OC12O (stereo unspecified) | > 100 µM | 99 µM | > 100 µM | > 100 µM | > 100 µM | > 100 µM | > 100 µM |  | 
2 | CCCCCCC[CH2][Sn]1([CH2]CCCCCCC)[O]C(=O)c2cccnc2[S]1 | > 100 µM | > 100 µM | > 100 µM |  | > 100 µM | > 100 µM | > 100 µM | > 100 µM | GI50 [1]: > 100 µM; GI50 [2]: > 100 µM; GI50 [3]: > 100 µM; GI50 [5]: > 100 µM; GI50 [8]: > 100 µM; GI50 [6]: > 100 µM; GI50 [7]: > 100 µM
3 | O=C(O)CSc1n[nH]c(-c2ccccc2)n1 | > 100 µM |  | > 100 µM | > 100 µM | > 100 µM |  | > 100 µM |  | 
4 | Cc1c(Cl)cccc1N1C(=O)C(Cl)=C(Cl)C1=O | > 100 µM | > 100 µM | > 100 µM | > 100 µM | > 100 µM | > 100 µM | > 100 µM |  | 
5 | CCC1C2C=CC(CC2)N1S(=O)(=O)c1ccc(C)cc1 (stereo unspecified) | 60.2 µM | 58.1 µM | 55.5 µM |  | 38.2 µM |  |  | > 100 µM | 
6 | CCOC(=O)C1(c2ccccc2)CCC(=O)CC1 | > 100 µM | > 100 µM | > 100 µM | > 100 µM | > 100 µM | > 100 µM | > 100 µM | > 100 µM | 
7 | COc1ccc(/C(=N\NC(=O)C(N)=O)C(c2ccc(OC)cc2)C2(O)C(=O)Nc3c(Cl)cccc32)cc1 (stereo unspecified) |  | > 100 µM | > 100 µM | > 100 µM | > 100 µM | > 100 µM | > 100 µM |  | 
8 | COc1ccc(NC(=O)/C(N=O)=C(/C)O)cc1 | > 100 µM | > 100 µM | > 100 µM | > 100 µM | > 100 µM | > 100 µM | > 100 µM |  | 
9 | O=C(O)[C@H](NS(=O)(=O)c1ccc2ccccc2c1)c1ccccc1 | > 100 µM |  | > 100 µM | > 100 µM | > 100 µM |  | > 100 µM | > 100 µM | 
10 | Cc1ccc(Cn2c(C)nc3c2C(=O)c2ccccc2C3=O)cc1 | 19 µM |  | 58 µM |  | > 100 µM | > 100 µM | > 100 µM |  | 
11 | Cc1ccc(S(=O)(=O)N/N=C/c2oc(-c3ccncc3)c(-c3ccncc3)c2[N+](=O)[O-])cc1 | > 100 µM |  | > 100 µM | > 100 µM | > 100 µM | > 100 µM | > 100 µM | > 100 µM | 
12 | COC1[C@@H](OC(C)=O)[C@@H](NC(=O)C(Cl)(Cl)Cl)C(I)[C@@H](N2C(=O)c3ccccc3C2=O)[C@H]1OC (stereo partly specified) | > 100 µM | > 100 µM | > 100 µM | > 100 µM | > 100 µM | > 100 µM | > 100 µM |  | 
13 | CCOC(=O)C(C)(C)Oc1ccc2c(C)c(-c3ccc(Cl)cc3)c(=O)oc2c1 | > 100 µM | > 100 µM | > 100 µM |  | > 100 µM |  | > 100 µM | > 100 µM | 
14 | O=C(NCCCCN=c1cccccc1NCCCCNC(=O)OCc1ccccc1)OCc1ccccc1 | 31.3 µM | 29.4 µM |  |  | 26.1 µM | 71.1 µM | 43.6 µM | 26.1 µM | 
15 | CC1=C2CCCC2=C/C(=N/Nc2ccc([N+](=O)[O-])cc2[N+](=O)[O-])CC1 | > 100 µM | > 100 µM | > 100 µM | > 100 µM | > 100 µM | > 100 µM | > 100 µM |  | 
16 | Cc1nc2ccccc2nc1-c1ccc(N=[N+]([O-])c2ccc(-c3nc4ccccc4nc3C)cc2)cc1 |  |  |  |  |  |  |  |  | TGI [9]: > 100 µM
17 | O=[N+]([O-])c1ccc(-n2nnc(C3=NCCN3)c2-c2ccc(Cl)cc2)cc1 | > 100 µM | > 100 µM | > 100 µM | > 100 µM | > 100 µM | > 100 µM | > 100 µM |  | 
18 | CCN1CCN=c2c3cc(OC)ccc3n3cnc4ccc1c2c43 |  |  |  |  |  |  |  |  | TGI [9]: 1.11 µM
19 | N=c1ccn2c(n1)OC1C(O)C(CO)OC12 (stereo unspecified) | > 364 µM | > 163 µM |  | > 662 µM | > 562 µM | > 1000 µM | > 1000 µM |  | TGI [10]: 4.37 µM; TGI [11]: > 1000 µM; TGI [12]: 5.13 µM
20 | COc1c(OC)c(OC)c(C(=O)/C=C/c2ccccc2)c(OC)c1OC |  |  |  |  |  |  |  |  | TGI [9]: 70.2 µM
21 | Oc1cc(O)c2c(c1)OC(c1ccc(O)c(O)c1)C(OC1(c3cc(O)c(O)c(O)c3)Oc3cc(O)cc(O)c3C(O)C1O)C2 (stereo unspecified) |  |  |  |  |  |  |  |  | TGI [9]: 49.5 µM
22 | O=C(N/N=C1/C(=O)N(c2ccc(Cl)cc2Cl)C(=O)C(=O)C1c1nc2ccccc2o1)c1ccccc1O (stereo unspecified) |  | 78.5 µM | > 100 µM |  | > 100 µM |  | > 100 µM |  | 
23 | O=C(Nc1cc(Cl)ccc1Cl)c1cc2cccc(Cl)c2oc1=O | > 100 µM | > 100 µM |  | > 100 µM | > 100 µM |  | > 100 µM |  | 
24 | CC(CC(=O)O)C(C(=O)O)C(=O)O (stereo unspecified) |  |  |  |  |  |  |  |  | TGI [9]: > 100 µM

Row | Compound | TGI [1] | TGI [2] | TGI [3] | TGI [4] | TGI [5] | TGI [6] | TGI [7] | TGI [8] | also measured
25 | C1CSCCSCCS1 |  |  |  |  |  |  |  |  | TGI [9]: > 100 µM
26 | O=C(CC(O)(C(F)(F)F)C(F)(F)F)c1cc(CC(=O)C(O)(C(F)(F)F)C(F)(F)F)cc(CC(=O)C(O)(C(F)(F)F)C(F)(F)F)c1 |  |  |  |  |  |  |  |  | TGI [9]: > 9.13 µM
27 | CC(=O)n1c2c(c(=O)n1-c1ccccc1)S(=O)CCC2 (stereo unspecified) | > 100 µM | > 100 µM | > 100 µM |  | > 100 µM | > 100 µM | > 100 µM | > 100 µM | 
28 | COC1C(O)=C2C(=O)O/C(C)=C/C=C/C=C/C=C\CC(c3ccccc3)NC(=O)\C=C/C=C\C=C\C=C\[C@@]2(C)[C@@H]1O (stereo partly specified) |  | 0.357 µM |  |  | 0.165 µM |  | 0.147 µM |  | TGI [9]: 0.265 µM
29 | COc1ccc2oc(-c3cccnc3)cc(=O)c2c1 | > 100 µM | > 100 µM | > 100 µM |  |  |  | > 100 µM | > 100 µM | 
30 | COc1ccc(-c2cc(-c3ccccc3)c(C#N)c(=O)n2C2OC(CO)C(O)C(O)C2O)cc1 (stereo unspecified) | > 100 µM | > 100 µM | > 100 µM | > 100 µM | > 100 µM | > 100 µM | > 100 µM | > 100 µM | 
31 | c1ccc(SC2CCSc3ccccc3C2Sc2ccccc2)cc1 (stereo unspecified) | > 100 µM |  | > 100 µM |  | > 100 µM | > 100 µM | > 100 µM |  | 
32 | COc1cccc(/C=N/[N-]C(=O)c2ccncc2)c1[O-].[Cu+2].[OH3+] | > 100 µM | > 100 µM | > 100 µM | > 100 µM | > 100 µM | > 100 µM | > 100 µM |  | GI50 [1]: 48.2 µM; GI50 [2]: 71.1 µM; GI50 [3]: 57.7 µM; GI50 [4]: > 100 µM; GI50 [5]: 47.9 µM; GI50 [6]: > 100 µM; GI50 [7]: 52.6 µM
33 | O=c1n(-c2ccccc2)c(=O)n2n1C1C=CC2C2C(C1)C2(Cl)Cl (stereo unspecified) | > 100 µM | > 100 µM | > 100 µM |  | > 100 µM | > 100 µM | > 100 µM | > 100 µM | 
34 | CCOC(=O)NC(=O)c1cn(CCOC(=O)NCCCCCCNC(=O)OCCn2cc(C(=O)NC(=O)OCC)c(=O)[nH]c2=O)c(=O)[nH]c1=O | > 100 µM | > 100 µM | > 100 µM | > 100 µM | > 100 µM | > 100 µM | > 100 µM |  | 
35 | COC(=O)[C@]1(C)CCCC2(C)C1CC[C@H]1C=C(C)[C@H]3CCC12C3 (stereo partly specified) |  | > 100 µM | > 100 µM |  | > 100 µM | > 100 µM | > 100 µM | > 100 µM | 
36 | CCCNC(=S)/N=C/c1c(O)c2ccccc2[nH]c1=O |  |  |  |  |  |  |  |  | TGI [9]: > 100 µM
37 | Cc1ccc(-c2nc3ccc([N+](=O)[O-])cc3[nH]2)cc1 |  |  |  |  |  |  |  |  | TGI [9]: > 100 µM
38 | N#Cc1c(-c2ccc(F)cc2)c(-c2ccc(F)cc2)nn(CCO)c1=O |  |  |  |  |  |  |  |  | TGI [9]: 0.121 µM
39 | CC(=O)O[C@H]1CCC2[C@@H]3CCC4=C(O)c5nocc5C[C@]4(C)C3CC[C@@]21C (stereo partly specified) | > 100 µM | > 100 µM | > 100 µM | > 100 µM | > 100 µM | > 100 µM |  |  | 
40 | O=C(c1ccc(Cl)cc1)c1cnc(Nc2ccccc2Cl)s1 | 42.9 µM | 66.7 µM | 32.8 µM |  |  |  | > 100 µM |  | TGI [9]: 50.1 µM
41 | CCOc1ccc(N2C(=O)/C(=C/c3ccc(N(CCC#N)CCC#N)cc3)N=C2c2cc([N+](=O)[O-])ccc2Cl)cc1 | 40.8 µM | > 100 µM | 95 µM | > 100 µM |  | > 100 µM | > 100 µM | > 100 µM | 
42 | O=c1c2ccccc2sc2cccc(NCCCN3CCN(CCCNc4cccc5sc6ccccc6c(=O)c45)CC3)c12 |  |  |  |  |  |  |  |  | TGI [9]: > 100 µM
43 | Cc1ccc(NC(=O)C2C(=O)N(c3ccc(C)c(C)c3)C(=O)C2N=N)cc1C (stereo unspecified) | > 100 µM | > 100 µM | > 100 µM | > 100 µM | > 100 µM | > 100 µM | > 100 µM | > 100 µM | 
44 | O=C1[C@@H]2C3c4ccccc4C([C@@H]2C(=O)N1c1ccccc1)S3(=O)=O | > 100 µM | > 100 µM | > 100 µM | > 100 µM | > 100 µM | > 100 µM | > 100 µM | > 100 µM | 
45 | Cc1[nH]c2ccccc2c1-c1cc(-c2cc(-c3c(C)[nH]c4ccccc34)on2)no1 |  |  |  |  |  |  |  |  | TGI [9]: 48.3 µM
46 | O=C(CSc1nnc(-c2ccc(N=Cc3ccc(Cl)cc3)cc2)o1)Nc1ccc(Cl)cc1 | > 100 µM | > 100 µM | > 100 µM | > 100 µM | > 100 µM | > 100 µM |  |  | 
47 | O=c1[nH]cc(COCCO)c(=O)[nH]1 | > 100 µM | > 100 µM | > 100 µM | > 100 µM | > 100 µM | > 100 µM | > 100 µM | > 100 µM | 
